pIC50: −log10 of the molar value.
Assays:
SHV-5 β-lactamase = molecular target: T1, SHV-5 β-lactamase (Klebsiella pneumoniae, UniProt P0A3M1); experiment: β-lactamase enzyme inhibition, SHV-5; format: biochemical
T1 construct: made in house; host or cells: E. coli BL21(DE3)
Outline: (§1)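 Enzyme + inhibitor, 15 min, 37° C; substrate added, absorbance read 10 min. OXA-1/p99 AmpC: nitrocefin 100 μM final, A486. KPC-2: imipenem, A300. SHV-5: cefotaxime, A260. IC50 = 50% drop in initial hydrolysis rate vs no-inhibitor control.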

[1] = test system: E. coli ESBL4 expressing CTX-M-15; experiment: broth microdilution MIC, E. coli CTX-M-15; format: cell-based; details: Fixed CAZ (ceftazidime) 4 μg/mL
Outline: (§2)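 CAMHB; strains pre-grown 3-5 h. Test cpd 2-fold dilutions, 32→0.25 μg/mL final, + beta-lactam static 4 μg/mL. CLSI inoculation, 16-20 h at 37° C, visual MIC.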

[2] = test system: E. cloacae 144200 expressing Class C P99 AmpC; experiment: broth microdilution MIC, E. cloacae P99; format: cell-based; details: Fixed CAZ (ceftazidime) 4 μg/mL
Outline: as §2

[3] = test system: K. pneumoniae 156319 expressing KPC-3; experiment: broth microdilution MIC, K. pneumoniae KPC-3; format: cell-based; details: Fixed Mero (meropenem) 4 μg/mL
Outline: as §2

OXA-1 β-lactamase = molecular target: T2, OXA-1 β-lactamase (Escherichia coli, UniProt P13661); experiment: β-lactamase enzyme inhibition, OXA-1; format: biochemical; details: Nitrocefin 100 μM, 486 nm; 15 min at 37° C. preincubation; read-out: IC50 OXA-1 (Class D)
T2 construct: made in house; host or cells: E. coli BL21(DE3)
T2 sequence (P13661 26-276): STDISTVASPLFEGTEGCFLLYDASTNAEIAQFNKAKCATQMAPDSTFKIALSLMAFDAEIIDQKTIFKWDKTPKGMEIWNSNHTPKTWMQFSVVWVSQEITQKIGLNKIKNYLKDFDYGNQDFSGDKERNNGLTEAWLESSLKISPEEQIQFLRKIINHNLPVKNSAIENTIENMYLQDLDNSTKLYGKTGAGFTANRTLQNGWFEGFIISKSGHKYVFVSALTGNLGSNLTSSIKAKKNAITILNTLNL
Protocol: For SHV-5, Kpc-2, p99AmpC and OXA-1 β-lactamases, E. coli BL21(DE3) bacterial cells carrying expression plasmids (expressed as native untagged proteins) for the individual β-lactamases were grown in 1 L of Superbroth (Teknova Inc. Hollister, Calif.) supplemented with 100 μg/ml kanamycin selection and 1×5052 (0.5% glycerol, 0.05% glucose and 0.2% α-lactose) at 35° C. for 18-20 hours. Cells were harvested by centrifugation (4,000×g, 4° C., 20 min), resuspended in 50 ml of 10 mM HEPES pH 7.5 ( 1/20 of the initial volume). The cells were lysed by sonication (5 pulses of 45 seconds) at 45 W on ice. The lysates were clarified by centrifugation at 10,000×g for 40 minutes at 4° C. Samples were diluted 5-fold in 50 mM sodium acetate pH 5.0, stored overnight at 4° C., after which they were centrifuged at 10,000×g for 30 minutes to clarify, and filtered through 0.45 μm filters. The samples were loaded onto a 5 ml Capto S sepharose cation exchange column (GE Healthcare) pre-equilibrated with 50 mM sodium acetate pH 5.0. The column was washed with 5 column volumes of 50 mM sodium acetate pH 5.0 to wash out unbound protein and a linear gradient of NaCl (0 to 500 mM) was used to elute the protein (over 16 CV) from the column. Fractions were assayed for […] activity using Centa (Calbiochem, Gibbstown, N.J.) or Nitrocefin (EMD Millipore chemicals, Darmstadt, Germany) as a reporter β-lactamase substrate for activity in the isolated fractions. Active fractions were pooled, concentrated and further purified by gel filtration chromatography on a Superdex 75 prep grade gel filtration column (GE Healthcare, Piscataway, N.J.) pre-equilibrated in 50 mM Hepes pH 7.5, 150 mM NaCl. Active fractions were pooled, concentrated, and quantitated by BCA protein determination (Thermo Scientific, Rockford, Ill.), dialyzed into PBS and frozen at −80° C. in 20% glycerol until use.
An equal volume of diluted enzyme stock was added, and the plates were incubated at 37° C. for 15 min. Nitrocefin was used as substrate for p99 AmpC, VIM-2 and OXA-1 and dispensed into each well at a final concentration of 100 μM. Absorbance at 486 nm was immediately monitored for 10 min using a Biotek Powerwave XS2 microplate spectrophotometer using the GEN5 software package (Biotek Instruments, Winooski Vt.). In an analogous fashion, imipenem was used as substrate for KPC-2 and Cefotaxime was used for SHV-5, while changes in absorbance upon hydrolysis of the β-lactam ring were monitored at 300 nm and 260 nm respectively in UV-transparent 96-well microtiter assay plates. Maximum rates of hydrolysis were compared to those in control wells (without inhibitors), and percentages of enzyme inhibition were calculated for each concentration of inhibitor. The concentration of inhibitor needed to reduce the initial rate of hydrolysis of substrate by 50% (IC50) was calculated as the residual activity of β-lactamase at 486 nm using GraFit version 7 kinetics software package (Erithacus Software, Surrey, UK).
Using the methodology described above, examples of the current invention were evaluated for their ability to inhibit β-lactamase enzymes from all four Ambler classifications (A through D). […] NT=Not tested.

[4] = test system: K. pneumoniae A-1797 expressing KPC-2 and VIM-4; experiment: broth microdilution MIC, K. pneumoniae KPC-2 and VIM-4; format: cell-based; details: Fixed Mero (meropenem) 4 μg/mL
Outline: as §2

[5] = molecular target: T3, VIM-2 metallo β-lactamase (Pseudomonas aeruginosa, UniProt Q9K2N0); experiment: β-lactamase enzyme inhibition, VIM-2; format: biochemical; details: Nitrocefin 100 μM, 486 nm; 15 min at 37° C. preincubation; read-out: IC50 VIM-2 (Class B)
T3 construct: made in house; host or cells: E. coli BL21(DE3)
Outline: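 Inhibitor and enzyme sat together 15 min at 37° C before 100 μM nitrocefin (final) was added and 486 nm absorbance read for 10 min. IC50 is the concentration halving initial hydrolysis rate relative to uninhibited wells. Protein came from Q sepharose anion exchange at pH 7.5, repeated to >90% purity.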

KPC-2 β-lactamase = molecular target: T4, KPC-2 β-lactamase (Klebsiella pneumoniae, UniProt Q9F663); experiment: β-lactamase enzyme inhibition, KPC-2; format: biochemical; details: imipenem substrate, 300 nm; 15 min at 37° C. preincubation; read-out: IC50 KPC-2 (Class A)
T4 construct: made in house; host or cells: E. coli BL21(DE3)
T4 sequence (Q9F663 25-293, looked up): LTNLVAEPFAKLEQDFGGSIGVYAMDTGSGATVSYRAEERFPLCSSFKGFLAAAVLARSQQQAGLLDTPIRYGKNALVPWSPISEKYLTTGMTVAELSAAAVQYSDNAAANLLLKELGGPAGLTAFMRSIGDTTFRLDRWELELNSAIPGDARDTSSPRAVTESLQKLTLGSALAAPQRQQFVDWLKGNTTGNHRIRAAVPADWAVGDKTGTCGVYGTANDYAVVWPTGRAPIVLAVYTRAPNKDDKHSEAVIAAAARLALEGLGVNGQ
Outline: as §1

p99 AmpC β-lactamase = molecular target: T5, p99 AmpC β-lactamase (Enterobacter cloacae, UniProt P05364); experiment: β-lactamase enzyme inhibition, p99 AmpC; format: biochemical
T5 construct: made in house; host or cells: E. coli BL21(DE3)
T5 sequence (P05364 21-381): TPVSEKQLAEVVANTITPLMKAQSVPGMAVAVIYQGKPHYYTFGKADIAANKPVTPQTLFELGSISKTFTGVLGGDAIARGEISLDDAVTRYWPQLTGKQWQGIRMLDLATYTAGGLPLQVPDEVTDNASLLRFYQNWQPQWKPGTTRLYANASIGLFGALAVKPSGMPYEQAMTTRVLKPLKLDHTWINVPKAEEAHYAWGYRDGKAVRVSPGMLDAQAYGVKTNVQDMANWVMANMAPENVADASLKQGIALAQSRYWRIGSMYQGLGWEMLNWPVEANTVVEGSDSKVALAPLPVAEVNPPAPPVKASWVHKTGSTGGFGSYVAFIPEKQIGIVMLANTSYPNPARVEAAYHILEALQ
Outline: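 Inhibitor and enzyme were incubated 15 min at 37°C first. The enzyme was recombinant p99 AmpC, untagged, from E. coli BL21(DE3), purified by ion-exchange and size-exclusion chromatography.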

T1 sequence (P0A3M1 22-286): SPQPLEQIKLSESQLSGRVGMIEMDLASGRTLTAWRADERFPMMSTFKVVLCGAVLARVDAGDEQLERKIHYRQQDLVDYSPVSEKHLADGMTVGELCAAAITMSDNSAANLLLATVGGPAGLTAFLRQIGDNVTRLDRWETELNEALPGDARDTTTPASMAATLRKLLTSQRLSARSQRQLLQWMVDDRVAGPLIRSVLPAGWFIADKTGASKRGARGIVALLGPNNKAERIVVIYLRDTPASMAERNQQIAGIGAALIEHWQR

## O=C(CCC(=O)c1ccccc1)N[C@H]1Cc2cccc(C(=O)O)c2OB1O [Example 42, (R)-2-Hydroxy-3-(4-oxo-4-phenyl-butyrylamino)-3,4-dihydro-2H-benzo[e][1,2]oxaborinine-8-carboxylic acid]
SHV-5 β-lactamase
  pIC50: > 7.00
[1]
  MIC of exemplary compounds in presence of fixed β-lactams, E. coli ESBL4 CTX-M-15: C (C represents the MIC in the presence of ≤4 g/mL of a β-lactamase inhibitor)
[2]
  MIC of exemplary compounds in presence of fixed β-lactams, E. cl. 144200 p99 AmpC: C (C represents the MIC in the presence of ≤4 g/mL of a β-lactamase inhibitor)
[3]
  MIC of exemplary compounds in presence of fixed β-lactams, K.P. 156319 KPC-3: B (B represents the MIC in the presence of between 8 and 32 g/mL of a β-lactamase inhibitor)
OXA-1 β-lactamase
  pIC50: > 7.00
[4]
  MIC of exemplary compounds in presence of fixed β-lactams, K.P. A-1797 KPC-2 VIM-4: B (B represents the MIC in the presence of between 8 and 32 g/mL of a β-lactamase inhibitor)
[5]
  pIC50: 6.00 to 7.00
KPC-2 β-lactamase
  pIC50: > 7.00
p99 AmpC β-lactamase
  pIC50: > 7.00

## O=C(CCNS(=O)(=O)C(F)(F)F)N[C@H]1Cc2cccc(C(=O)O)c2OB1O [Example 52, (R)-2-Hydroxy-3-(3-trifluoromethanesulfonylamino-propionylamino)-3,4-dihydro-2H-benzo[e][1,2]oxaborinine-8-carboxylic acid]
SHV-5 β-lactamase
  pIC50: > 7.00
[1]
  MIC of exemplary compounds in presence of fixed β-lactams, E. coli ESBL4 CTX-M-15: C (C represents the MIC in the presence of ≤4 g/mL of a β-lactamase inhibitor)
[2]
  MIC of exemplary compounds in presence of fixed β-lactams, E. cl. 144200 p99 AmpC: C (C represents the MIC in the presence of ≤4 g/mL of a β-lactamase inhibitor)
[3]
  MIC of exemplary compounds in presence of fixed β-lactams, K.P. 156319 KPC-3: B (B represents the MIC in the presence of between 8 and 32 g/mL of a β-lactamase inhibitor)
OXA-1 β-lactamase
  pIC50: > 7.00
[4]
  MIC of exemplary compounds in presence of fixed β-lactams, K.P. A-1797 KPC-2 VIM-4: B (B represents the MIC in the presence of between 8 and 32 g/mL of a β-lactamase inhibitor)
[5]
  pIC50: 5.00 to 6.00
KPC-2 β-lactamase
  pIC50: > 7.00
p99 AmpC β-lactamase
  pIC50: > 7.00

## CS(=O)(=O)NCCC(=O)N[C@H]1Cc2cc(F)c(F)c(C(=O)O)c2OB1O [Example 51, (R)-6,7-Difluoro-2-hydroxy-3-(3-methanesulfonylamino-propionylamino)-3,4-dihydro-2H-benzo[e][1,2]oxaborinine-8-carboxylic acid]
SHV-5 β-lactamase
  pIC50: > 7.00
[1]
  MIC of exemplary compounds in presence of fixed β-lactams, E. coli ESBL4 CTX-M-15: C (C represents the MIC in the presence of ≤4 g/mL of a β-lactamase inhibitor)
[2]
  MIC of exemplary compounds in presence of fixed β-lactams, E. cl. 144200 p99 AmpC: C (C represents the MIC in the presence of ≤4 g/mL of a β-lactamase inhibitor)
[3]
  MIC of exemplary compounds in presence of fixed β-lactams, K.P. 156319 KPC-3: C (C represents the MIC in the presence of ≤4 g/mL of a β-lactamase inhibitor)
OXA-1 β-lactamase
  pIC50: > 7.00
[4]
  MIC of exemplary compounds in presence of fixed β-lactams, K.P. A-1797 KPC-2 VIM-4: B (B represents the MIC in the presence of between 8 and 32 g/mL of a β-lactamase inhibitor)
[5]
  pIC50: 5.00 to 6.00
KPC-2 β-lactamase
  pIC50: > 7.00
p99 AmpC β-lactamase
  pIC50: > 7.00

## NC(=O)NCC(=O)N[C@H]1Cc2cccc(C(=O)O)c2OB1O [Example 36, (R)-2-Hydroxy-3-(2-ureido-acetylamino)-3,4-dihydro-2H-benzo[e][1,2]oxaborinin-8-carboxylic acid]
SHV-5 β-lactamase
  pIC50: > 7.00
[1]
  MIC of exemplary compounds in presence of fixed β-lactams, E. coli ESBL4 CTX-M-15: C (C represents the MIC in the presence of ≤4 g/mL of a β-lactamase inhibitor)
[2]
  MIC of exemplary compounds in presence of fixed β-lactams, E. cl. 144200 p99 AmpC: C (C represents the MIC in the presence of ≤4 g/mL of a β-lactamase inhibitor)
[3]
  MIC of exemplary compounds in presence of fixed β-lactams, K.P. 156319 KPC-3: C (C represents the MIC in the presence of ≤4 g/mL of a β-lactamase inhibitor)
OXA-1 β-lactamase
  pIC50: > 7.00
[4]
  MIC of exemplary compounds in presence of fixed β-lactams, K.P. A-1797 KPC-2 VIM-4: C (C represents the MIC in the presence of ≤4 g/mL of a β-lactamase inhibitor)
[5]
  pIC50: 6.00 to 7.00
KPC-2 β-lactamase
  pIC50: 6.00 to 7.00
p99 AmpC β-lactamase
  pIC50: > 7.00
